Test results from the CheMixHub viscosity set.
Where “and” joins values, the source holds several entries; their conditions need not be identical. Equal values may be shown once. ± gives the uncertainty stated by the source.

Columns and labels:
[1] = xn = mol fraction of the nth substance listed

CCCOCC(C)O (centres undefined)
viscosity [mPa·s]
Settings	298.15 K	303.15 K	308.15 K	318.15 K
100 kPa	2.451 ± 0.15	2.094 ± 0.15	1.885 ± 0.15	–
101.33 kPa	2.389 ± 0.036	–	1.822 ± 0.028	1.416 ± 0.022

CN1CCCCCC1=O
Settings	viscosity [mPa·s]
298.16 K, 101 kPa	4.92 ± 0.042

CCCCCCCCC
viscosity
Settings	298.15 K	303.15 K	308.15 K	313.15 K	318.15 K	323.15 K
100 kPa	0.668 ± 0.027 mPa·s	0.627 ± 0.025 mPa·s	–	0.556 ± 0.023 mPa·s	0.526 ± 0.021 mPa·s	0.498 ± 0.02 mPa·s
101 kPa	0.6626 ± 0.0066 mPa·s and 0.6588 ± 0.0084 mPa·s and 0.668 ± 0.013 mPa·s	0.641 ± 0.007 mPa·s	0.5808 ± 0.0074 mPa·s and 0.588 ± 0.012 mPa·s and 0.5974 ± 0.0085 mPa·s	0.5652 ± 0.0084 mPa·s	0.512 ± 0.0066 mPa·s	0.5073 ± 0.0082 mPa·s
101.33 kPa	–	–	–	0.535 ± 0.015 mPa·s	0.505 ± 0.014 mPa·s	–

O=S(Cl)Cl
Settings	viscosity [mPa·s]
298.15 K, 101 kPa	0.6194 ± 0.016

CN(C)P(=O)(N(C)C)N(C)C
Settings	viscosity [mPa·s]
303.15 K, 101.3 kPa	2.928 ± 0.077

CC(N)CN (centres undefined)
viscosity
Settings	293.15 K	298.15 K	303.15 K	308.15 K	313.15 K	318.15 K	323.15 K
101 kPa	–	1.481 ± 0.027 mPa·s	1.314 ± 0.024 mPa·s and 1.325 ± 0.016 mPa·s	1.175 ± 0.022 mPa·s and 1.192 ± 0.014 mPa·s	1.058 ± 0.02 mPa·s and 1.084 ± 0.013 mPa·s	0.9597 ± 0.018 mPa·s and 0.9891 ± 0.012 mPa·s	0.9091 ± 0.011 mPa·s
101.33 kPa	1.61 ± 0.07 mPa·s	1.49 ± 0.06 mPa·s and 1.47 ± 0.05 mPa·s	1.31 ± 0.05 mPa·s and 1.34 ± 0.04 mPa·s	1.19 ± 0.05 mPa·s and 1.13 ± 0.04 mPa·s	1.06 ± 0.04 mPa·s and 1.06 ± 0.03 mPa·s	0.96 ± 0.04 mPa·s and 0.97 ± 0.03 mPa·s	–

COCOC
viscosity [mPa·s]
Settings	293.15 K	298.15 K	303.1 K	303.15 K	308.15 K	313.15 K
100 kPa	0.371 ± 0.037	0.357 ± 0.036	–	0.346 ± 0.035	0.337 ± 0.034	0.329 ± 0.033
101 kPa	–	–	0.304 ± 0.013	–	–	–

CCC(C)C(C)C (centres undefined)
Settings	viscosity [mPa·s]
298.15 K, 101.33 kPa	0.3898 ± 0.0037

CC(C)OC(C)C
viscosity
Settings	293.15 K	298.15 K	303.15 K	308.15 K	313.15 K	318.15 K	323.15 K
100 kPa	0.332 ± 0.017 mPa·s	0.319 ± 0.017 mPa·s	0.304 ± 0.016 mPa·s	0.29 ± 0.015 mPa·s and 0.29 ± 0.02 mPa·s	0.274 ± 0.014 mPa·s	0.261 ± 0.014 mPa·s	0.246 ± 0.013 mPa·s
101 kPa	–	0.315 ± 0.003 mPa·s	–	–	–	–	–
101.33 kPa	0.34 ± 0.021 mPa·s	0.322 ± 0.02 mPa·s	0.31 ± 0.019 mPa·s	0.293 ± 0.018 mPa·s	0.279 ± 0.017 mPa·s	–	–

C#CCO
viscosity [mPa·s]
Settings	303.15 K	308.15 K	313.15 K	318.15 K	323.15 K
101 kPa	1.345 ± 0.012	1.214 ± 0.011	1.103 ± 0.01	1.01 ± 0.0095	0.9277 ± 0.0088
101.32 kPa	–	1.221 ± 0.02	1.12 ± 0.018	1.017 ± 0.017	0.9331 ± 0.016

CCN(CCO)CCO
101 kPa
Settings	viscosity [mPa·s]
303.15 K	48.27 ± 0.7
308.15 K	36.72 ± 0.57
313.15 K	28.36 ± 0.43
318.15 K	22.31 ± 0.33
323.15 K	17.78 ± 0.28

CCCCCCCCc1ccccc1
102 kPa
Settings	viscosity [mPa·s]
293.15 K	2.57 ± 0.02
303.15 K	2.08 ± 0.01
313.15 K	1.73 ± 0.01
323.15 K	1.46 ± 0.01

Cc1cccc(C)n1
viscosity
Settings	101 kPa	101.33 kPa
293.15 K	–	0.8373 ± 0.0067 mPa·s
295.15 K	0.929 ± 0.04 mPa·s	–
298.15 K	0.8777 ± 0.015 mPa·s	0.7813 ± 0.0063 mPa·s
298.2 K	0.806 ± 0.013 mPa·s	–
300.12 K	–	0.847 ± 0.007 mPa·s
303 K	0.7635 ± 0.0091 mPa·s	–
303.12 K	–	0.833 ± 0.007 mPa·s
303.24 K	0.753 ± 0.012 mPa·s	–
306.99 K	–	0.774 ± 0.006 mPa·s
308.15 K	–	0.6861 ± 0.0055 mPa·s
308.26 K	0.708 ± 0.011 mPa·s	–
313 K	0.6811 ± 0.0081 mPa·s and 0.6687 ± 0.008 mPa·s	–
313.34 K	0.663 ± 0.01 mPa·s	–
318.15 K	–	0.6032 ± 0.0048 mPa·s
318.39 K	0.627 ± 0.01 mPa·s	–
323 K	0.6095 ± 0.0073 mPa·s and 0.5945 ± 0.0072 mPa·s	–

C#CCO + O
viscosity [mPa·s], [1]
Settings	303.15 K	308.15 K	313.15 K	318.15 K	323.15 K
101 kPa, x1 = 0.1	1.094 ± 0.01	0.9708 ± 0.0092	0.8728 ± 0.0084	0.7923 ± 0.0077	0.7208 ± 0.0071
101 kPa, x1 = 0.166	1.191 ± 0.011	1.06 ± 0.01	0.9534 ± 0.0091	0.8633 ± 0.0083	0.7845 ± 0.0076
101 kPa, x1 = 0.3	1.275 ± 0.012	1.135 ± 0.011	1.023 ± 0.0097	0.9273 ± 0.0088	0.845 ± 0.0081
101 kPa, x1 = 0.4	1.291 ± 0.012	1.157 ± 0.011	1.048 ± 0.0099	0.9513 ± 0.009	0.8707 ± 0.0083
101 kPa, x1 = 0.499	1.296 ± 0.012	1.165 ± 0.011	1.054 ± 0.0099	0.9624 ± 0.0091	0.8802 ± 0.0084
101 kPa, x1 = 0.599	1.309 ± 0.012	1.179 ± 0.011	1.069 ± 0.01	0.9758 ± 0.0092	0.8933 ± 0.0085
101 kPa, x1 = 0.7	1.313 ± 0.012	1.188 ± 0.011	1.079 ± 0.01	0.9844 ± 0.0093	0.902 ± 0.0086
101 kPa, x1 = 0.801	1.327 ± 0.012	1.202 ± 0.011	1.092 ± 0.01	0.9977 ± 0.0094	0.9169 ± 0.0087
101 kPa, x1 = 0.899	1.33 ± 0.012	1.204 ± 0.011	1.095 ± 0.01	1 ± 0.0094	0.9179 ± 0.0087
101.32 kPa, x1 = 0.1138	–	0.9894 ± 0.016	0.8862 ± 0.015	0.7991 ± 0.013	0.7267 ± 0.012
101.32 kPa, x1 = 0.2351	–	1.105 ± 0.018	0.9927 ± 0.016	0.8936 ± 0.015	0.8222 ± 0.014
101.32 kPa, x1 = 0.3145	–	1.149 ± 0.018	1.034 ± 0.017	0.9365 ± 0.015	0.8508 ± 0.014
101.32 kPa, x1 = 0.4174	–	1.171 ± 0.019	1.059 ± 0.017	0.9551 ± 0.016	0.8741 ± 0.015
101.32 kPa, x1 = 0.5002	–	1.186 ± 0.019	1.069 ± 0.017	0.9676 ± 0.016	0.8856 ± 0.015
101.32 kPa, x1 = 0.61	–	1.194 ± 0.019	1.077 ± 0.017	0.9877 ± 0.016	0.8958 ± 0.015
101.32 kPa, x1 = 0.7185	–	1.2 ± 0.019	1.085 ± 0.018	0.9924 ± 0.016	0.9072 ± 0.015
101.32 kPa, x1 = 0.8223	–	1.209 ± 0.02	1.095 ± 0.018	1 ± 0.017	0.9191 ± 0.015
101.32 kPa, x1 = 0.9	–	1.216 ± 0.02	1.107 ± 0.018	1.007 ± 0.017	0.9223 ± 0.015

[Al+3].[Cl-].[Cl-].[Cl-] + CC(N)=O
viscosity [mPa·s], [1], 101 kPa
Settings	x1 = 0.5	x1 = 0.52	x1 = 0.57	x1 = 0.6
313 K	59.32 ± 1.3	47.47 ± 1.1	44.48 ± 0.98	40.23 ± 0.89
323 K	41.01 ± 0.92	32.24 ± 0.73	30.87 ± 0.69	28.7 ± 0.64

CCCOCC(C)O (centres undefined) + CCNCC
viscosity [mPa·s], [1], 100 kPa
Settings	298.15 K	303.15 K	308.15 K
x1 = 0.0509	0.3488 ± 0.15	0.3318 ± 0.15	0.3107 ± 0.15
x1 = 0.1002	0.3949 ± 0.15	0.3733 ± 0.15	0.3489 ± 0.15
x1 = 0.1505	0.4552 ± 0.15	0.4261 ± 0.15	0.4014 ± 0.15
x1 = 0.2	0.519 ± 0.15	0.4819 ± 0.15	0.4542 ± 0.15
x1 = 0.3003	0.6838 ± 0.15	0.6321 ± 0.15	0.5992 ± 0.15
x1 = 0.4	0.8976 ± 0.15	0.8055 ± 0.15	0.7606 ± 0.15
x1 = 0.5002	1.171 ± 0.15	1.034 ± 0.15	0.9506 ± 0.15
x1 = 0.5999	1.436 ± 0.15	1.264 ± 0.15	1.15 ± 0.15
x1 = 0.7	1.742 ± 0.15	1.514 ± 0.15	1.365 ± 0.15
x1 = 0.7982	2.014 ± 0.15	1.738 ± 0.15	1.562 ± 0.15
x1 = 0.9	2.265 ± 0.15	1.94 ± 0.15	1.739 ± 0.15
x1 = 0.9496	2.361 ± 0.15	2.021 ± 0.15	1.814 ± 0.15
